Results reported in patent publication US10005767B2, “Compositions and methods for inhibition of the JAK pathway” (Rigel Pharmaceuticals, Inc., priority 2009, dated 2018).
pIC50: −log10 of the molar value.

Each compound was assayed on human primary T-cells, IL-2 stimulated proliferation (JAK-1 and JAK-3 dependent; reported as JAK3 activity) (assay: Human primary T-cell proliferation stimulated by IL-2 (Example 3)). Details: Homo sapiens, T-cell, tested under conditions described in Example 3 (IL-2 stimulated human primary T-cell proliferation); read-out: ability to inhibit JAK3 activity, IC50 range (Table V).
Format: cell-based
Summary of the method: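 Peripheral-blood human T-cells pre-activated via TCR/CD28, IL-2-starved overnight, then cultured 72 h at 37 °C with compound in Yssel's medium containing IL-2 (80 U/mL in cell suspension). Proliferation read as viable-cell ATP by CellTiter-Glo luminescence; reduction versus control taken as JAK pathway inhibition.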
`Cc1cnc(Nc2ccc(N3CCC(F)(F)CC3)nc2)nc1Nc1ccc2oc(=O)[nH]c2c1` [II-59, 5-(2-(6-(4,4-difluoropiperidin-1-yl)pyridin-3-ylamino)-5-methylpyrimidin-4-ylamino)benzo[d]oxazol-2(3H)-one] was tested, and the pIC50 was greater than 6.30.
`Cc1cnc(Nc2ccccc2Cl)nc1Nc1ccc2oc(=O)[nH]c2c1` [Compound I-520, 5-(2-(2-chlorophenylamino)-5-methylpyrimidin-4-ylamino)benzo[d]oxazol-2(3H)-one] was tested, and the pIC50 was 5.30 to 6.30.
For `Cc1cnc(Nc2cnc(N3C[C@@H]4C[C@H]3CN4C)c(C)c2)nc1Nc1ccc2oc(=O)[nH]c2c1` [II-28, N4-(benzoxazolin-2-on-5-yl)-N2-[3-methyl-2-((1S,4S)-5-methyl-2,5-diazabicyclo[2.2.1]heptan-2-yl)pyridin-5-yl]-5-methylpyrimidine-2,4-diamine], the pIC50 was greater than 6.30.
`Cc1cnc(Nc2ccc(N(C)C)nc2)nc1Nc1ccc2oc(=O)[nH]c2c1` [II-1, N4-(benzo[d]oxazol-2(3H)-on-5-yl)-N2-(6-dimethylaminopyridin-3-yl)-5-methylpyrimidine-2,4-diamine] showed a pIC50 greater than 6.30.
`Cc1cnc(Nc2ccc3[nH]nc(C)c3c2)nc1Nc1ccc2oc(=O)[nH]c2c1` [IV-49, 5-methyl-N2-(3-methylindazol-5-yl)-N4-(2-oxo-2,3-dihydro-1,3-benzoxazol-5-yl)-2,4-pyrimidinediamine] showed a pIC50 greater than 6.30.
In the case of `COc1cc(Nc2ncc(C)c(Nc3ccc4oc(=O)[nH]c4c3)n2)ccc1C(=O)N1CCN(C)CC1` [Compound I-270, 5-(2-(3-methoxy-4-(4-methylpiperazine-1-carbonyl)phenylamino)-5-methylpyrimidin-4-ylamino)benzo[d]oxazol-2(3H)-one], the pIC50 was greater than 6.30.
Compound `COc1ccc(Nc2ncc(C)c(Nc3ccc4oc(=O)[nH]c4c3)n2)cc1C(=O)N1CCN(C)CC1` [Compound I-263, 5-(2-(4-methoxy-3-(4-methylpiperazine-1-carbonyl)phenylamino)-5-methylpyrimidin-4-ylamino)benzo[d]oxazol-2(3H)-one] has a pIC50 greater than 6.30.
In the case of `Cc1cnc(Nc2ccc(F)c(OC(F)(F)F)c2)nc1Nc1ccc2oc(=O)[nH]c2c1` [Compound I-163, 5-[2-(4-Fluoro-3-trifluoromethoxy-phenylamino)-5-methyl-pyrimidin-4-ylamino]-3H-benzooxazol-2-one], the pIC50 was greater than 6.30.
With `[2H]C([2H])([2H])Oc1cc(C)cc(Nc2ncc(C)c(Nc3ccc4oc(=O)[nH]c4c3)n2)c1` [Compound I-266, 5-(2-(3-methyl-5-trideuteromethoxyphenylamino)-5-methylpyrimidin-4-ylamino)benzo[d]oxazol-2(3H)-one] the pIC50 was greater than 6.30.
In the case of `Cc1cnc(Nc2cc(C(C)O)ccc2F)nc1Nc1ccc2oc(=O)[nH]c2c1` (stereo not drawn) [Compound I-523, 5-(2-(2-fluoro-5-(1-hydroxyethyl)phenylamino)-5-methylpyrimidin-4-ylamino)benzo[d]oxazol-2(3H)-one], the pIC50 was greater than 6.30.
In the case of `Cc1cnc(Nc2ccc3c(c2)CN(C(=O)C(C)(C)C)C3)nc1N(C(=O)C(C)(C)C)c1ccc2oc(=O)n(C(=O)C(C)(C)C)c2c1` [III-13, N-{2-[2-(2,2-Dimethyl-propionyl)-2,3-dihydro-1H-isoindol-5-ylamino]-5-methyl-pyrimidin-4-yl}-N-[3-(2,2-dimethyl-propionyl)-2-oxo-2,3-dihydro-benzooxazol-5-yl]-2,2-dimethyl-propionamide], the pIC50 was greater than 6.30.
`Cc1cnc(Nc2ccc(C(C)N3CCC3)cc2)nc1Nc1ccc2oc(=O)[nH]c2c1` (stereo not drawn) [Compound I-201, 5-(2-(4-(1-(azetidin-1-yl)ethyl)phenylamino)-5-methylpyrimidin-4-ylamino)benzo[d]oxazol-2(3H)-one] gave a pIC50 greater than 6.30.
With `Cc1cnc(Nc2ccc(C(=O)N3CCNCC3)nc2)nc1Nc1ccc2oc(=O)[nH]c2c1` [II-45, 5-{5-Methyl-2-[6-(piperazine-1-carbonyl)-pyridin-3-ylamino]-pyrimidin-4-ylamino}-3H-benzooxazol-2-one] the pIC50 was greater than 6.30.
In the case of `CCN(CC)C(C)c1cccc(Nc2ncc(C)c(Nc3ccc4oc(=O)[nH]c4c3)n2)c1` (stereo not drawn) [Compound I-216, 5-(2-(3-(1-(diethylamino)ethyl)phenylamino)-5-methylpyrimidin-4-ylamino)benzo[d]oxazol-2(3H)-one], the pIC50 was greater than 6.30.
For `Cc1cnc(Nc2ccccc2F)nc1Nc1ccc2oc(=O)[nH]c2c1` [Compound I-468, 5-[2-(2-Fluoro-phenylamino)-5-methyl-pyrimidin-4-ylamino]-3H-benzooxazol-2-one], the pIC50 was greater than 6.30.
With `Cc1cnc(Nc2cccc(C(C)N3CCCCC3)c2)nc1Nc1ccc2oc(=O)[nH]c2c1` (stereo not drawn) [Compound I-215, 5-(5-methyl-2-(3-(1-(piperidin-1-yl)ethyl)phenylamino)pyrimidin-4-ylamino)benzo[d]oxazol-2(3H)-one] the pIC50 was greater than 6.30.
In the case of `Cc1cnc(Nc2ccc(OCC3CCCCC3)c(C(F)(F)F)c2)nc1Nc1ccc2oc(=O)[nH]c2c1` [Compound I-179, 5-[2-(4-Cyclohexylmethoxy-3-trifluoromethyl-phenylamino)-5-methyl-pyrimidin-4-ylamino]-3H-benzooxazol-2-one], the pIC50 was less than 5.00.
In the case of `Cc1cnc(Nc2c(C)cccc2F)nc1Nc1ccc2oc(=O)[nH]c2c1` [IV-62, 5-(2-(2-fluoro-6-methylphenylamino)-5-methylpyrimidin-4-ylamino)benzo[d]oxazol-2(3H)-one], the pIC50 was 5.30 to 6.30.
`CCC(=O)n1c(=O)oc2ccc(Nc3nc(Nc4ccc(C(N)=O)cc4)ncc3C)cc21` [Compound I-145, 4-[5-Methyl-4-(2-oxo-3-propionyl-2,3-dihydro-benzooxazol-5-ylamino)-pyrimidin-2-ylamino]-benzamide] showed a pIC50 greater than 6.30.
Work on `Cc1cnc(Nc2cnc(N3C[C@@H]4C[C@H]3CN4C)c(F)c2)nc1Nc1ccc2oc(=O)[nH]c2c1` [II-40, N4-(benzoxazolin-2-on-5-yl)-N2-[3-fluoro-2-((1S,4S)-5-methyl-2,5-diazabicyclo[2.2.1]heptan-2-yl)pyridin-5-yl]-5-methylpyrimidine-2,4-diamine] yielded a pIC50 greater than 6.30.
For `Cc1cnc(Nc2ccc(F)c(S(C)(=O)=O)c2)nc1Nc1cc(F)c2oc(=O)[nH]c2c1` [Compound I-250, 7-fluoro-5-(2-(4-fluoro-3-(methylsulfonyl)phenylamino)-5-methylpyrimidin-4-ylamino)benzo[d]oxazol-2(3H)-one], the pIC50 was greater than 6.30.
`Cc1cnc(Nc2ccc(N(C)[C@H]3CCCN(Cc4ccccc4)C3)nc2)nc1Nc1ccc2oc(=O)[nH]c2c1` [II-95, (S)-5-(2-(6-((1-benzylpiperidin-3-yl)(methyl)amino)pyridin-3-ylamino)-5-methylpyrimidin-4-ylamino)benzo[d]oxazol-2(3H)-one] showed a pIC50 greater than 6.30.

Same assay, conditions: tested under conditions described in Example 3 (IL-2 stimulated human primary T-cell proliferation); read-out: ability to inhibit JAK3 activity, IC50 range (Table V)
Work on `Cc1cnc(Nc2cccc(C(=O)N3CCN(C)CC3)c2)nc1Nc1ccc2oc(=O)[nH]c2c1` [Compound I-321, 5-methyl-N2-[3-(4-methylpiperazin-1-yl)carbonyl]phenyl-N4-(2-oxo-2,3-dihydro-1,3-benzoxazol-5-yl)-2,4-pyrimidinediamine] yielded a pIC50 greater than 6.30.
For `Cc1ccc(Nc2ncc(C)c(Nc3ccc4oc(=O)[nH]c4c3)n2)cc1F` [Compound I-363, N2-(3-fluoro-4-methyl)phenyl-5-methyl-N4-(2-oxo-2,3-dihydro-1,3-benzoxazol-5-yl)-2,4-pyrimidinediamine], the pIC50 was greater than 6.30.
With `Cc1cnc(Nc2cccc(OCC(=O)N3CCOCC3)c2)nc1Nc1ccc2oc(=O)[nH]c2c1` [Compound I-320, 5-methyl-N2-[3-(morpholinocarbonylmethoxy)]phenyl-N4-(2-oxo-2,3-dihydro-1,3-benzoxazol-5-yl)-2,4-pyrimidinediamine] the pIC50 was greater than 6.30.
`Cc1cnc(Nc2cc(Cl)cc(OC(F)F)c2)nc1Nc1ccc2oc(=O)[nH]c2c1` [Compound I-495, N2-(3-chloro-5-difluoromethoxy)phenyl-5-methyl-N4-(2-oxo-2,3-dihydro-1,3-benzoxazol-5-yl)-2,4-pyrimidinediamine] showed a pIC50 greater than 6.30.
For `Cc1cnc(Nc2cccc(S(C)(=O)=O)c2)nc1Nc1ccc2oc(=O)n(COP(=O)(O)O)c2c1` [Compound I-33, N4-(3-phosphorylmethylbenzo[d]oxazol-2(3H)-on-5-yl)-N2-((3-methylsulfonyl)phenyl)-5-methylpyrimidine-2,4-diamine], the pIC50 was greater than 6.30.
With `Cc1cnc(Nc2ccc(F)c(NS(C)(=O)=O)c2)nc1Nc1ccc2c(c1)oc(=O)n2C` [Compound I-89, N2-((4-fluoro-3-methylsulfonylamino)phenyl)-N4-(3-methyl-2-oxo-2,3-dihydrobenzo[d]oxazol-6-yl)-5-methylpyrimidine-2,4-diamine] the pIC50 was greater than 6.30.
In the case of `Cc1cnc(Nc2cc(F)cc(OC(F)F)c2)nc1Nc1ccc2oc(=O)[nH]c2c1` [Compound I-401, N2-(3-difluoromethoxy-5-fluoro)phenyl-5-methyl-N4-(2-oxo-2,3-dihydro-1,3-benzoxazol-5-yl)-2,4-pyrimidinediamine], the pIC50 was greater than 6.30.
`CCOC(=O)N1CCN(c2ccc(Nc3ncc(C)c(Nc4ccc5oc(=O)[nH]c5c4)n3)cc2)CC1` [Compound I-344, N2-[4-(4-ethoxycarbonyl)piperazino]phenyl-5-methyl-N4-(2-oxo-2,3-dihydro-1,3-benzoxazol-5-yl)-2,4-pyrimidinediamine] gave a pIC50 greater than 6.30.
`Cc1cnc(Nc2ccc(NC(=O)c3ccccc3)cc2)nc1Nc1ccc2oc(=O)[nH]c2c1` [Compound I-308, 5-methyl-N4-(2-oxo-2,3-dihydro-1,3-benzoxazol-5-yl)-N2-(4-phenylcarbonylamino)phenyl-2,4-pyrimidinediamine] was tested, and the pIC50 was greater than 6.30.
`Cc1cnc(Nc2ccc(F)c(C#N)c2)nc1Nc1ccc2oc(=O)[nH]c2c1` [Compound I-294, N2-(3-cyano-4-fluoro)phenyl-5-methyl-N4-(2-oxo-2,3-dihydro-1,3-benzoxazol-5-yl)-2,4-pyrimidinediamine] showed a pIC50 greater than 6.30.
`CS(=O)(=O)c1ccc(Nc2ncc(F)c(Nc3ccc4oc(=O)[nH]c4c3)n2)cc1` [Compound I-21] showed a pIC50 greater than 6.30.
